For data set [1], the system named is Akt/FoxO3a/Bim signaling pathway in CCRF-CEM cells. The data set can be described thus: Western blot of Akt/FoxO3a/Bim signaling pathway proteins in CCRF-CEM cells. In kind it is cell-based, human. To be noted: for expression of phosphorylated FoxO3a, inhibitor plus dexamethasone: 2I; for expression of p-Akt1 / expression of p-Akt2: CCRF-CEM, inhibitors 0.8 μM, FIG. 5A. The method, then:
(§1) The control group was not added with any reagents. All experiments were performed in triplicate.
Protein detection by Western blot: in the examples of the present invention, Akt antibody (rabbit derived), phosphorylated Akt antibody (rabbit derived), FoxO3a antibody (rabbit derived), phosphorylated FoxO3a antibody (rabbit derived) and GAPDH antibody (rabbit derived) and secondary antibodies were all purchased from CST company. The cells were collected in a centrifuge tube and centrifuged at 1000 rpm, the supernatant was discarded and the cells were washed twice with PBS pre-cold at 4° C.; cell lysis buffer (150 mM NaCl, 1% NP-40, 0.1% SDS, 2 μg/ml Aprotinin, 2 μg/ml Leupeptin, 1 mM PMSF, 1.5 mM EDTA, 1 mM sodium vanadate) was added and the cells were lysed on ice for 40 minutes, the cell lysate was centrifuged at 20000 rpm, 4° C. for 15 minutes, and the supernatant was collected; a protein loading buffer for sodium dodecyl sulfate polyacrylamide (SDS-PAGE) gel electrophoresis (1.25 mL 1MTris-HCl (pH6.8), 0.5 g SDS, 25 mg BPB, 2.5 mL glycerol, 5 mL deionized water) was added, followed by boiling for 5 minutes to denature proteins; the loading buffer containing denatured proteins was applied to 10% SDS-PAGE for electrophoresis at 120 V, and then transferred to a PVDF membrane (Sangon Biotech (Shanghai) Co., Ltd.) at 130 V for 1.5 hours; after the membrane transfer was completed, the PVDF membrane was immediately rinsed with a Western washing solution (150 mmol/L NaCl, 50 mmol/L Tris-HCl (pH 7.5)) for 1-2 minutes; added with 5% non-fat milk powder (Shanghai Biotechnology Co., Ltd.), agitated gently and then blocked at room temperature for 60 minutes; a primary antibody diluted appropriately with 5% non-fat milk powder was added, and incubated overnight at room temperature with gentle agitating; the primary antibody was recovered and the membrane was washed three times with the washing solution for 5-10 minutes each; a horseradish peroxidase-labeled secondary antibody diluted appropriately with the Western washing solution was added, and incubated at room temperature for 1 hour with gentle agitating; the secondary antibody was recovered and the membrane was washed three times with the Western washing solution for 5-10 minutes each. An appropriate amount of developing solution (DAB 4 mg, 30% hydrogen peroxide 15 μL, 0.01 M Tris-Cl (pH 7.5) 5 mL) was dropped on the PVDF membrane, the image was detected using a bioluminescence image colorimeter and a gel imaging system (Thermo company), and the quantitative analysis of bands was performed using Image Lab software.
(§2) The cells were cultured in RPMI 1640 complete medium (Gibco company) containing 10% fetal bovine serum (FBS, Gibco company) in an incubator (Thermo company) at 5% CO2 and 37° C. until reaching logarithmic growth phase, then different concentrations of inhibitors and/or dexamethasone/ethanol/DMSO were added to the culture medium, followed by further culturing (for addition of dexamethasone/ethanol/DMSO, for 48 hours, and for addition of inhibitor, for 24 hours), and apoptosis was detected by Annexin V-FITC PI double staining and proteins were detected by Western blot, as described in Example 1.
Methods: CCRF-CEM cells were cultured in RPMI 1640 complete medium (Gibco company) containing 10% fetal bovine serum (FBS, Gibco company) in an incubator (Thermo company) at 5% CO2 and 37° C. until reaching logarithmic growth phase, then DMSO, dexamethasone and different inhibitors (DMSO: 0.1%, dexamethasone: 0.1 μM, inhibitors: 0.8 μM) were added to the culture medium, and further cultured (for addition of dexamethasone or DMSO, for 48 hours, and for addition of inhibitors, for 24 hours), and the proteins were detected by Western blot, as described in Example 1.
In general terms: Immunoblotting shows a protein as a band on a membrane.

Data set [2] deals with CCRF-CEM cells. The data set can be described thus: Apoptosis by Annexin V-FITC PI double staining (flow cytometry), CCRF-CEM. Format: cell-based, human. To be noted: compared to dexamethasone alone; FIG. 2A: Akt inhibitor 1 μM, dexamethasone 1 μM, LY294002 30 μM; FIG. 2G, 2J, 2K. The method, then: as §1
(§3) Apoptosis was detected by Annexin V-FITC PI double staining method (flow cytometry kit (FITC, PI double staining), Sangon Biotech (Shanghai) Co., Ltd.)), and the collected cells were washed once with phosphate buffered saline (PBS) (135 mM NaCl, 2.7 mM KCl, 1.5 mM KH2PO4 and 8 mM K2HPO4, pH 7.2); the 4× binding buffer was diluted to a 1× binding buffer with deionized water, then the cells were resuspended with 195 ul of the 1× binding buffer at a cell density of 2-5×10^5/ml; 5 μl of Annexin V-FITC was added to the 195 μl of the cell resuspension and mixed, and incubated in dark at room temperature for 10 minutes; the cells were washed once with 200 μl of the 1× binding buffer, and then resuspended in 190 μl of the 1× binding buffer; 10 μl of propidium iodide (20 μg/ml) was added. A flow cytometry device (Beckman company) was used for detection, and the rate of apoptosis was analyzed using Summit software.
as §2
(§4) As described in Example 3, the cells were cultured in RPMI 1640 complete medium containing 10% fetal bovine serum under 5% CO2 and 37° C. until reaching logarithmic growth phase, and then dexamethasone and different concentrations of Akt inhibitor were added to the culture medium, followed by further culture (for addition of dexamethasone/DMSO, for 48 hours, and for addition of the inhibitor, for 24 hours), the apoptosis was detected by Annexin V-FITC PI double staining method and proteins were detected by Western blot as described in Example 1 as well as the cell viability was detected by CCK-8 method.

The subject of data set [3] is Daudi cells. In words: Apoptosis by Annexin V-FITC PI double staining, Daudi. Format: cell-based, human. To be noted: compared to the dexamethasone group; FIG. 2K, 4L. The method, then: as §3
as §2, with “1. […]” for “1.”

Data set [4] deals with Akt/FoxO3a/Bim proteins in L-02 cells. The data set can be described thus: Western blot of Akt/FoxO3a/Bim proteins in L-02 cells. Format: cell-based, human. To be noted: pretreated with inhibitor 0.8 μM; FIG. 6B. On the procedure: Protein detection by Western blot: in the examples of the present invention, Akt antibody (rabbit derived), phosphorylated Akt antibody (rabbit derived), FoxO3a antibody (rabbit derived), phosphorylated FoxO3a antibody (rabbit derived) and GAPDH antibody (rabbit derived) and secondary antibodies were all purchased from CST company. […] An appropriate amount of developing solution (DAB 4 mg, 30% hydrogen peroxide 15 μL, 0.01 M Tris-Cl (pH 7.5) 5 mL) was dropped on the PVDF membrane, the image was detected using a bioluminescence image colorimeter and a gel imaging system (Thermo company), and the quantitative analysis of bands was performed using Image Lab software.

The nature of data set [5]: Toxicity in tumor-bearing nude mice (peripheral blood test, organ pathology).
The subject of data set [6] is Jurkat cells. The data set can be described thus: Apoptosis by Annexin V-FITC PI double staining, Jurkat. In kind it is cell-based, human. To be noted: for apoptosis of Jurkat cells, inhibitor in combination with dexamethasone: compared to the only/single dexamethasone group, FIG. 2F, 4J; for apoptosis of siRNA-transfected Jurkat cells induced by dexamethasone: compared to the dexamethasone group, FIG. 5H. The method, then:
as §3, §2, §4
The transfected cells were selected and passaged for 3 to 5 passages after resuscitation, with Interferin™ as transfection reagent, and the transfection procedure was performed in accordance with the instruction of the transfection reagent. In short, the cells of logarithmic growth phase were plated at 2×10^5/well, the cells were replaced with fresh complete medium (free of antibiotics) during transfection, siRNA was diluted with Opti-MEM and added with an appropriate amount of […]in™ and mixed, incubated at room temperature for 10 minutes prior to being added dropwise to the cells, and the cells were harvested at appropriate time. The cells were transfected with green fluorescein-labeled siRNA (FAM-siRNA) (siRNA at a final concentration of 20 μM, 1.25 μl/well), and the transfection efficiency was observed using a fluorescence microscope 24 hours later. The dexamethasone group was added 24 hours after transfection, followed by culture for further 24 hours, and then the cells were collected for observation; and the equal amount of anhydrous ethanol was added to the control group.

The subject of data set [7] is L-02 human-derived healthy liver cell line. In words: CCK-8 viability of healthy liver cells L-02. To be noted: FIG. 6A; for damage to liver cells: DEX 0.1 μM, inhibitors 0.8 μM.
Data set [8] has as its system Daudi cells. The data set can be described thus: Cell viability by CCK-8 and combination index, Daudi. In kind it is cell-based, human. To be noted: B lymphoma cells; as shown in Table 1. On the procedure:
as §4
The inhibitory effect of two drugs (dexamethasone and an inhibitor) alone and in combination on various lymphocyte lines was observed by CCK-8 method (CCK-8 kit), and then the half-inhibitory concentration of each drug was calculated using the median effect equation, and the combination index (CI) of the two drugs used in combination was calculated using CompuSyn software.
(1) the lymphocytes of logarithmic growth phase were taken and made to a cell suspension of 5×10^4/mL, a blank control group (5 wells), a dexamethasone group (3 wells for each concentration, triplicates), a single inhibitor group (3 wells for each concentration, triplicates), a dexamethasone plus inhibitor group (3 wells for each combined concentration, triplicates) were prepared, 180 μL of the suspension was seeded to each well of a 96-well plate, and incubated for 24 hours in an incubator at 5% CO2 and 37° C.
Based on the drug resistance of cells, the ratio of two drugs was fixed. The dexamethasone group was cultured for 48 hours while the inhibitor group was cultured for 24 hours.
(3) 10 μl of CCK-8 was added to each well, and cultured for 2 hours, and the optical density (OD) was measured at 450 nm using an automatic microplate reader, and the proliferation inhibition rate of the drug on cell was calculated.
(4) the proliferation inhibition rate was calculated according to the following equation: cell proliferation inhibition rate=(1-average OD value in the test group/average OD value in the control group)×100%, and the effect of interaction between the two drugs was analyzed by Chou-Talalay combination index method.

Where [9] appears, read: compared to the only dexamethasone group, FIG. 2B, 2H.

As to `OCC1OC(O)CC(O)C1O` (stereo not shown) [2-DG], the “total FoxO3a expression, inhibitor plus dexamethasone” value in data set [1] (compared to dexamethasone alone, FIG. 2H) is listed as “increased”. Further, in data set [1] (setting [9]), the “expression of pro-apoptosis factor Bim, inhibitor plus dexamethasone” value is given as “significantly up-regulated” and the “expression of phosphorylated FoxO3a, inhibitor plus dexamethasone” value was “decreased”. The “apoptosis of CCRF-CEM cells induced by dexamethasone, inhibitor plus dexamethasone” value in data set [2] is on record as “significantly increased”.

Turning to `Cc1[nH]nc2ccc(-c3cncc(OC[C@@H](N)Cc4ccccc4)c3)cc12` [A-674563], the “apoptosis of Daudi cells, inhibitor in combination with dexamethasone” value in data set [3] was “significantly increase”. Further, in data set [4], the “expressions of p-Akt1 and p-Akt2 in L-02 cells” value was “correspondingly increased”. Besides, the “liver pathology (HE staining)” value in data set [5] (7-day administration, FIG. 8A, 8B) is listed as “did not cause morphological changes of the liver tissues”. Moreover, in data set [5] (compared to the NC group, FIG. 6I), the “level of TBIL” value was “significantly increased”. The “level of peripheral blood AST” value in data set [5] (compared to the normal saline group (NC), FIG. 3F, 6H) is on record as “significantly increased”. For the same molecule, in data set [1], the “expression of p-Akt1” value is on record as “effectively inhibited” and the “expression of p-Akt2” value is given as “compensatory increase”. Further, the “apoptosis of Jurkat cells, inhibitor in combination with dexamethasone” value in data set [6] is on record as “significantly increase”. Besides, in data set [7], the “damage to liver cells” value is recorded as “most serious damage” and the “recovery of liver cell activity” value was “did not recover within 48-hour”. Besides, in data set [8], the “effect of inhibitor in combination with dexamethasone in B lymphoma cells (in words)” value is listed as “low degree of synergistic effect”.

On to `NC1(Cc2ccc(Cl)cc2)CCN(c2ncnc3[nH]ccc23)CC1` [CCT128930], for which the “apoptosis of Daudi cells, inhibitor in combination with dexamethasone” value in data set [3] was “significantly increase”. For the same molecule, in data set [4], the “expressions of p-Akt1 and p-Akt2 in L-02 cells” value is on record as “correspondingly increased”. Besides, in data set [1], the “expression of p-Akt1” value is “increased” and the “expression of p-Akt2” value is “increased”. Besides, the “apoptosis of Jurkat cells, inhibitor in combination with dexamethasone” value in data set [6] was “significantly increase”. Also, in data set [7], the “damage to liver cells” value is recorded as “least damage” and the “recovery of liver cell activity” value is listed as “gradually recovered after 6 hours of administration”. In addition, the liver cell activity in data set [7] (after six hours of administration) turned out to be 56.1%. For the same molecule, the “effect of inhibitor in combination with dexamethasone in B lymphoma cells (in words)” value in data set [8] was “additive effect”.

As for `C[C@H](NC(=O)Cc1cc(F)cc(F)c1)C(=O)N[C@H](C(=O)OC(C)(C)C)c1ccccc1` [dapt], the “expression of phosphorylated FoxO3a, inhibitor plus dexamethasone” value in data set [1] (setting [9]) was “significantly reduced”. Further, the “apoptosis of CCRF-CEM cells induced by dexamethasone, inhibitor plus dexamethasone” value in data set [2] is reported as “significantly increased”.

Take “Akt1 siRNA: siRNA, SEQ ID NO: 5 GGCCCAACACCUUCAUCAUTT and SEQ ID NO: 6 AUGAUGAAGGUGUUGGGCCTT (chain 1 GGCCCAACACCUUCAUCAUNN; chain 2 AUGAUGAAGGUGUUGGGCCNN; listed as RNA, chemistry not given here)”: in data set [6], the “apoptosis of siRNA-transfected Jurkat cells induced by dexamethasone” value is listed as “not increased”.

For the molecule “Akt2 siRNA: siRNA, SEQ ID NO: 7 GGUUCUUCCUCAGCAUCAATT and SEQ ID NO: 8 UUGAUGCUGAGGAAGAACCTT (chain 1 GGUUCUUCCUCAGCAUCAANN; chain 2 UUGAUGCUGAGGAAGAACCNN; listed as RNA, chemistry not given here)”, the “apoptosis of siRNA-transfected Jurkat cells induced by dexamethasone” value in data set [6] is given as “significantly increased”.

(Values after patent publication US10849906B2, “Use of Akt2 in diagnosis and treatment of tumor” (priority 2015, dated 2020).)
